Source: patent US9365851B2, “Spalt-like transcription factor 4 (SALL4) and uses thereof” (National University of Singapore, priority 2011, dated 2016)
Entries after “also recorded” stand apart in the source; their conditions may differ.

Tests used:
PTEN/AKT pathway [1] = assay: PTEN/AKT pathway expression in SNU-398 cells after treatment (Western blot, mRNA); assay type: cell-based, human; settings: for PTEN protein expression / phosphorylated AKT (pAKT) level: SNU-398, Western blot
Description: The induction of Pten expression was not affected when wt peptide was administrated together with a Pten inhibitor. AKT, a molecule with levels of phosphorylation controlled by the expression of Pten was affected by the wt peptide addition accordingly. […] The effect of wt peptide on pAKT was abrogated by the Pten inhibitor. […] In contrast, the protein expression level of endogenous Pten was very high in the none-SALL4 expressing SNU387 cells.
Then tested was whether this peptide could reverse the repressive effect of SALL4 on its target genes. The focus was onPTEN, since it is implicated in SALL4-mediated leukemogenesis (Yang et al., Blood, 112:805-813 (2008); Lu et al., PLoS One, 4:e5577 (2009)). In addition, it was previously reported that SALL4 could specifically bind to the PTEN promoter region in a chromatin immunoprecipitation (ChIP) assay (Lu et al., PLoS One, 4:e5577 (2009)). When SALL4 was overexpressed in 293T cells, an enrichment of SALL4 as well as decreased H3 acetylation at this binding site was observed, which correlated with decreased PTEN RNA expression (Lu et al., PLoS One, 4:e5577 (2009))). Therefore, it was hypothesized that SALL4 could recruit the HDAC/NuRD complex to repress PTEN, and that the wild type peptide would compete with endogenous SALL4 in recruiting the HDAC/NuRD complex to the PTEN promoter, and release the repression effect of SALL4 on PTEN. Furthermore, this model would predict that wild type peptide treatment of SALL4-expressing cells would lead to increased epigenetic markers of gene activation, such as H3 acetylation, at the PTEN promoter binding site, as well as an increase in PTEN expression. To test this possibility, SNU-398 cells were treated with scrambled or wild type peptide and subsequently evaluated for PTEN expression and H3 acetylation at the SALL4 binding site at the PTEN promoter region. […] Therefore, the results herein are compatible with the model that SALL4 recruits HDACs to repress PTEN expression, and blocking the SALL4-HDAC interaction with the wild type peptide results in increased expression of PTEN.
To confirm the involvement of PTEN tumor suppressor in SALL4 peptide-induced reduction of number of viable HCC cells, PTEN expression was analyzed by western blot upon drug treatment. […] Whether the increase in PTEN expression upon SALL4 peptide treatment has an effect in PI3K signalling by dephosphorylating AKT was examined.
To confirm the involvement of the PTEN tumor suppressor in the SALL4 peptide-induced reduction of HCC cell viability, PTEN expression was analyzed by western blot upon drug treatment. […] If the increase in PTEN expression has an effect in PI3K signaling was next examined. PTEN functions as a phosphatase to dephosphorylate AKT.

PTEN/AKT pathway [2] = assay: PTEN/AKT pathway expression in THP1 cells (Western blot); assay type: cell-based
Description: To further evaluate the specificity of the SALL4/PTEN pathway, next investigated was whether wild type peptide treatment could affect the expression of PTEN and its downstream target, phosphorylated AKT (pAKT).

SNU-387 cells = assay: Cell viability assay (MTT/MTS); assay type: cell-based, human; settings: for cell viability / number of viable cells: SNU-387 (low/no SALL4), 72 h
Experimental: Cell viability was determined 72 hours after peptide treatments. Absorbance at 490 nm is directly correlated to cell viability. Wild type functional SALL4 peptide (wt), mutant non-functional SALL4 peptide (Mut.), trichostatin A (TSA), scrambled control peptide (Scr.), wild type peptide+PTEN inhibitor SF1670 (wt+Inh.) were given to the cells at the indicated concentration. PTEN inhibitor concentration was 400 nM. (31C, 31D) Western blot analyses of the effects of peptides on PTEN, AKT, and pAKT expression on SNU-398 (31C) and SNU-387 (31D) cells 72 hours following peptide treatments. 20 μM of wt or Scr. peptide or 100 nM of TSA was used. PTEN inhibitor concentration was 400 nM. (31E) Representative images show NOD/SCID mice transplanted with Scr peptide- and wt peptide-treated SNU-398 cells (left) and the dissected subcutaneous tumors (right). Arrow indicates subcutaneous tumor. (31F) Growth curve of subcutaneous tumors (left panel) and tumor weight of tumors dissected at day 26 post-transplantation (right panel). Results are mean±s.d. n=5; * P<0.05. (31G) Representative images show NOD/SCID mice transplanted with 3 million SNU-398 cells at the left flank and treated intraperitoneally for five consecutive days with 56 mg/kg body weight TAT-Mut. peptide or 60 mg/kg body weight wt peptide (top panel) and the dissected subcutaneous tumors (bottom). (31H) Tumor weight of tumors dissected at day 18 post-transplantation and post-treatment of mice treated intraperitoneally with TAT fusion peptides as described in 5 g. Results are mean±s.d. n=5; * P<0.05.
Cell viability assay (MTT) (Invitrogen) was performed according to the manufacturer's instructions. Briefly—10000 cells were seeded in 100 ul medium in 96 well plates. The next day cells were treated as indicated on the figures. At the designated time after the treatment 20 ul of 5 mg/ml MTT solution was added to each well. After 3.5 h incubation at 37 C the medium was removed and the reaction was terminated with a solution of 4 mM HCl, 0.1% Nondet P-40 (NP40) all in isopropanol in dark on orbital shaker for […]. at room temperature. The absorbance was read at 590 nm with a reference filter of 620 nm in Spectromax M3 (ABI) spectrophotometer.
7000 cells were seeded in each wells of a microtiter plate in 100 μL of complete medium. Cells from each treatment were seeded in duplicate. Controls using the same medium without cells were set up in parallel. At various time points, 317 μg/mL of 3-(4,5-dimethylthiazol-2-yl)-5-(3-carboxymethoxyphenyl)-2-(4-sulfophenyl)-2H-tetrazolium (CellTiter96® AQueous One Solution Cell Proliferation Assay, Promega) was added to each well. After four hours incubation of the tetrazolium salt, absorbance at 490 nm was read by a microplate reader.

Scr peptide: same 12 amino acids as the wt peptide, but in a scrambled sequence; negative control (SRMRQKIHPKIQ) [reference compound]
PTEN protein expression (PTEN/AKT pathway [1]): an effect not observed | phosphorylated AKT (pAKT) level (PTEN/AKT pathway [1]): No effect | PTEN protein expression (PTEN/AKT pathway [1]; listed as scrambled (mutant) peptide): does not exhibit the same properties | PTEN protein expression (PTEN/AKT pathway [1]; listed as scrambled peptide): not observed | PTEN expression (PTEN/AKT pathway [2]): No effect | pAKT on Ser 473 (PTEN/AKT pathway [2]): No effect | cell viability / number of viable cells (SNU-387 cells): no change in cell viability

CTATTTAGCCAAAGGCAAA (short hairpin RNA, chemistry and delivery not given here, further chemistry not given here) [E5 shRNA]
cell viability upon SALL4 knockdown (SNU-387 cells; SNU-387, MTS): number of viable cells was similar

H-MSRRKQAKPQHI-OH [wt peptide, MSRRKQAKPQHI]
Pten mRNA expression (PTEN/AKT pathway [1]; SNU-398): increased Pten mRNA expression level | elevation of PTEN expression level (PTEN/AKT pathway [1]; SNU-398, 24 h, relative to alfa-tubulin): More than 2 times | PTEN protein expression (PTEN/AKT pathway [1]): noticeably higher | PTEN protein expression (PTEN/AKT pathway [1]; listed as SALL4 peptide): extensive increase in PTEN protein | phosphorylated AKT (pAKT) level (PTEN/AKT pathway [1]; listed as SALL4 peptide): significant reduction of pAKT level; also recorded: marked reduction of phospho AKT protein levels | PTEN protein expression (PTEN/AKT pathway [1]; listed as SALL4 peptide (wt)): extensive increased in PTEN expression | PTEN protein expression (PTEN/AKT pathway [1]; listed as Wild type peptide): increased PTEN protein | PTEN protein expression (PTEN/AKT pathway [1]; listed as wild type peptide): increased PTEN expression | phosphorylated AKT (pAKT) level (PTEN/AKT pathway [1]; listed as wt): significantly reduced | PTEN expression (PTEN/AKT pathway [2]): increased PTEN expression | pAKT on Ser 473 (PTEN/AKT pathway [2]): significantly reduced | cell viability / number of viable cells (SNU-387 cells): had no effects; also recorded: did not affect the cell viability | cell viability / number of viable cells (SNU-387 cells; listed as SALL4 peptide): had no effect | cell viability / number of viable cells (SNU-387 cells; listed as wt): no change in cell viability

CC(/C=C/C(=O)NO)=C\[C@@H](C)C(=O)c1ccc(N(C)C)cc1 [TSA, Trichostatin A, reference compound]
PTEN protein expression (PTEN/AKT pathway [1]): also induced PTEN expression; also recorded: also induced PTEN upregulation | phosphorylated AKT (pAKT) level (PTEN/AKT pathway [1]): significantly reduced | PTEN protein expression (PTEN/AKT pathway [1]; listed as Trichostatin A): levels of PTEN were elevated | PTEN expression (PTEN/AKT pathway [2]): increased PTEN expression | pAKT on Ser 473 (PTEN/AKT pathway [2]): significantly reduced
